Experimental data as given in patent publication US20040076974A1, “Liver necrosis predictive genes” (priority 2002, published 2004).
Where “and” joins values, the source holds several entries; their conditions need not be identical. Equal values may be shown once. Read-outs that look alike come from different tables or passages of the source.

Tests used:
[1] = tested on: toxicologically relevant rat genes (rat CT array)
Sprague Dawley rats = conditions: rat
Procedure, shortened: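 Toxicity calls (necrosis present or absent at 72 h) and histopathology scores were correlated with tissue gene expression from Crl:CD Sprague Dawley rats. Animals, usually 3 treated with compound by i.p. route and 3 given vehicle, were killed at 6, 24 or 72 h and tissues frozen immediately in liquid nitrogen.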

[2] = 24 h, dose 20, ratio treatment/control
[3] = 24 h, dose 20, ratio treatment/control, listed as PHEN

In the case of C[C@@H]1C[C@H]2[C@@H]3CCC4=CC(=O)C=C[C@]4(C)[C@@]3(F)[C@@H](O)C[C@]2(C)[C@@]1(O)C(=O)CO [dexamethasone], the “60S ribosomal protein L6 expression” value ([1]; rat, in vivo) is reported as 0.8901 and 1.098 (2×) and 0.9353, the “Adenine nucleotide translocator 1 expression” value ([1]; rat, in vivo) is reported as 0.9053 and 1.087 and 0.9653 and 0.9797 and the “Alpha-2-macroglobulin, sequence 2 expression” value ([1]; rat, in vivo) is reported as 0.8488 and 1.069 and 0.9789 and 0.9595. The Alpha-2-microglobulin expression ([1]; rat, in vivo) was 0.9657 and 0.9413, the Alpha-tubulin expression ([1]; rat, in vivo) was 0.8272 and 1.251 and 0.9313 and 1.093 and the “Apolipoprotein All expression” value ([1]; rat, in vivo) was 0.7858 and 0.4198 and 0.803 and 0.4911. The “Beta-tubulin, class I expression” value ([1]; rat, in vivo) was 0.8776 and 1.559 and 0.9809 and 1.151, the “Calpactin I heavy chain expression” value ([1]; rat, in vivo) was 1.271 and 1.029 and the Cofilin expression ([1]; rat, in vivo) was 1.006 and 0.9999. For the same molecule, the “Collagen type II expression” value ([1]; rat, in vivo) was 0.9739 and 1.08 and 1.31, the “Cystatin C expression” value ([1]; rat, in vivo) was 0.8226 and 0.8364 and 1.078 and the “Cytochrome P450 2C11 expression” value ([1]; rat, in vivo) was 1.275. The “Dynamin-1 (D100) expression” value ([1]; rat, in vivo) was 1.017 and 1.094 and 0.908 and 0.9644, the “Elongation factor-1 alpha expression” value ([1]; rat, in vivo) was 0.8912 and 1.18 and 1.019 and the “F1-ATPase beta subunit expression” value ([1]; rat, in vivo) was 0.9797 and 1.576 and 1.032 and 1.236. The “Gamma-actin, cytoplasmic expression” value ([1]; rat, in vivo) was 0.9178 and 0.883 and 0.9507, the “Glutathione S-transferase theta-1 expression” value ([1]; rat, in vivo) was 0.9901 and 0.9291 and 0.9991 and 0.8886 and the Glycine methyltransferase expression ([1]; rat, in vivo) was 1.124 and 1.982 and 1.013 and 1.714. For the same molecule, the Heme oxygenase expression ([1]; rat, in vivo) was 0.8094 and 0.8311 and 0.7467, the “High affinity IgE receptor gamma chain (FcERIgamma) expression” value ([1]; rat, in vivo) was 0.9808 and 0.8055 and 0.8812 and 0.8054 and the “IgE binding protein expression” value ([1]; rat, in vivo) was 1.039 and 0.992 and 1.096. The “Insulin-like growth factor I, exon 6 expression” value ([1]; rat, in vivo) was 0.8498 and 0.631 and 1.058 and 0.6827, the “Melanoma-associated antigen ME491 expression” value ([1]; rat, in vivo) was 1.042 and 1.057 and 0.9592 and 0.993 and the “NADP-dependent isocitrate dehydrogenase, cytosolic expression” value ([1]; rat, in vivo) was 0.9222 and 0.7332 and 0.8853 and 0.7428. For the same molecule, the NIPK expression ([1]; rat, in vivo) was 0.9259 and 0.8897 and 0.7728, the Osteoactivin expression ([1]; rat, in vivo) was 0.8926 and 1.029 and 0.8681 and the “Phase-1 RCT-39 expression” value ([1]; rat, in vivo) was 0.9168. The “Phase-1 RCT-57 expression” value ([1]; rat, in vivo) was 0.9696, the “Phase-1 RCT-78 expression” value ([1]; rat, in vivo) was 0.8839 and the “Phase-1 RCT-81 expression” value ([1]; rat, in vivo) was 0.9341. The “Phase-1 RCT-107 expression” value ([1]; rat, in vivo) was 1.099 and 1.846 and 1.664, the “Phase-1 RCT-138 expression” value ([1]; rat, in vivo) was 0.9192 and 0.9399 and 0.9819 and the “Phase-1 RCT-146 expression” value ([1]; rat, in vivo) was 0.9664. For the same molecule, the “Phase-1 RCT-149 expression” value ([1]; rat, in vivo) was 0.7735, the “Phase-1 RCT-164 expression” value ([1]; rat, in vivo) was 0.8597 and 0.7256 and 0.7203 and the “Phase-1 RCT-179 expression” value ([1]; rat, in vivo) was 0.9599 and 0.8496. The “Phase-1 RCT-192 expression” value ([1]; rat, in vivo) was 0.9855, the “Phase-1 RCT-295 expression” value ([1]; rat, in vivo) was 0.9503 and the Stathmin expression ([1]; rat, in vivo) was 1.058 and 1.063. For the same molecule, the “Uncoupling protein 2 expression” value ([1]; rat, in vivo) was 0.8754 and 1.097 and 0.9302, the “alpha-1,2-fucosyltrans-ferase expression” value ([1]; rat, in vivo) was 0.8942 and 0.8707 and 0.7596 and the “Score (histopathology liver necrosis severity score)” value (Sprague Dawley rats; Sprague Dawley, in vivo, ip, 8 mg/kg, 72 h) was 1. The “Score (histopathology liver necrosis severity score)” value (Sprague Dawley rats; Sprague Dawley, in vivo, ip, 30 mg/kg, 72 h) was 1, the “Liver Toxicity Necrosis Classification” value (Sprague Dawley rats; in vivo) was “no” and the “Liver Necrosis” value (Sprague Dawley rats; in vivo, ip, 8 mg/kg) was “no”. For the same molecule, the “Liver Necrosis” value (Sprague Dawley rats; in vivo, ip, 30 mg/kg) was “no”.

With NNc1ccccc1 [phenylhydrazine] the “Aflatoxin B1 aldehyde reductase” value ([1]; 24 h) was 0.6558 and 0.8284, the “Bax (alpha)” value [1, 2] was 1.114 and the “Proliferating cell nuclear antigen gene” value [1, 2] was 0.9203. For the same molecule, the 3-hydroxyisobutyrate dehydrogenase [1, 3] was 0.9143 and 0.9803, the 14-3-3 zeta [1, 3] was 1.282 and 1.371 and the “60S ribosomal protein L6” value [1, 3] was 0.8081 and 0.8097. The “ATPase inhibitor (rat mitochondrial IF1 protein)” value [1, 3] was 0.5186 and 0.4781, the “Alpha 1 - inhibitor III” value [1, 3] was 0.5075 and 0.4307 and the Alpha-2-macroglobulin [1, 3] was 0.5649 and 0.479. The “Bax (alpha)” value [1, 3] was 1.115, the Beta-actin [1, 3] was 1.318 and 1.347 and the “Calpactin I heavy chain” value [1, 3] was 1.093 and 1.232. The “Carbamyl phosphate synthetase I” value [1, 3] was 0.8997 and 0.8454, the “Carbonic anhydrase III” value [1, 3] was 2.069 and 2.604 and the Carbonyl reductase [1, 3] was 1.013 and 1.035. The “Cathepsin L, sequence 2” value [1, 3] was 1.124, the Cofilin [1, 3] was 1.075 and 0.9686 and the “Cyclin G” value [1, 3] was 1.06 and 1.18. The DNA polymerase beta [1, 3] was 0.6488 and 0.5275, the “Dynamin-1 (D100)” value [1, 3] was 0.9853 and 0.8394 and the “Endogenous retroviral sequence, 5′ and 3′ LTR” value [1, 3] was 1.197 and 1.103. The Enolase alpha [1, 3] was 0.7101 and 0.7241, the Epidermal growth factor [1, 3] was 0.7579 and 0.6975 and the “Equilbrative nitrobenzylthioinosine-sensitive nucleoside transporter” value [1, 3] was 0.6046 and 0.5693. The “Extracellular-signal-regulated kinase 1” value [1, 3] was 1.377 and 1.805, the Fas antigen [1, 3] was 1.2 and 1.204 and the Gadd45 [1, 3] was 1.142 and 1.49. The Gadd153 [1, 3] was 1.087 and 1.085, the “Gamma-actin, cytoplasmic” value [1, 3] was 0.7836 and 0.7811 and the “Glucose-regulated protein 78” value [1, 3] was 0.8506 and 0.7386. For the same molecule, the Heme oxygenase [1, 3] was 1.498 and 1.908, the Hepatic lipase [1, 3] was 0.5441 and 0.4993 and the ID-1 [1, 3] was 1.157 and 1.321. For the same molecule, the IgE binding protein [1, 3] was 1.098 and 1.166, the IkB-a [1, 3] was 0.8328 and 0.7684 and the “Insulin-like growth factor I” value [1, 3] was 0.8551 and 0.7944. For the same molecule, the “Insulin-like growth factor binding protein 1” value [1, 3] was 1.056 and 0.9665, the “Insulin-like growth factor binding protein 3” value [1, 3] was 0.8807 and 0.8119 and the “Integrin beta1” value [1, 3] was 1.12. The L-gulono-gamma-lactone oxidase [1, 3] was 1.301 and 1.543, the “Liver fatty acid binding protein” value [1, 3] was 0.6905 and 0.5494 and the MAP kinase kinase [1, 3] was 1.023 and 1.164. The “Macrophage inflammatory protein-2 alpha” value [1, 3] was 1.132 and 1.347, the “Matrin F/G” value [1, 3] was 1.071 and 0.9981 and the “Matrix metalloproteinase-1” value [1, 3] was 1.581 and 1.897. For the same molecule, the “Melanoma-associated antigen ME491” value [1, 3] was 0.9841, the “Monocyte chemotactic protein receptor (CCR2)” value [1, 3] was 1.3 and 1.499 and the “Multidrug resistant protein-2” value [1, 3] was 1.286 and 1.334. The “N-hydroxy-2-acetylaminofluorene sulfotransferase (ST1C1)” value [1, 3] was 0.5527 and 0.5091, the “Nucleoside diphosphate kinase beta isoform” value [1, 3] was 1.1 and the “Organic anion transporter 3” value [1, 3] was 1.058. The “Organic cation transporter 3” value [1, 3] was 0.9117 and 0.8387, the Ornithine decarboxylase [1, 3] was 1.479 and 1.694 and the PAR interacting protein [1, 3] was 0.9791 and 0.9269. For the same molecule, the “Phase-1 RCT 252” value [1, 3] was 0.7562, the “Phase-1 RCT-15” value [1, 3] was 3.553 and 2.982 and the “Phase-1 RCT-39” value [1, 3] was 0.9896. The “Phase-1 RCT-49” value [1, 3] was 0.869 and 0.8084, the “Phase-1 RCT-50” value [1, 3] was 1.203 and the “Phase-1 RCT-68” value [1, 3] was 1.203. The “Phase-1 RCT-78” value [1, 3] was 1.292, the “Phase-1 RCT-83” value [1, 3] was 0.5669 and 0.5525 and the “Phase-1 RCT-88” value [1, 3] was 2.1. The “Phase-1 RCT-89” value [1, 3] was 0.8262, the “Phase-1 RCT-92” value [1, 3] was 2.107 and the “Phase-1 RCT-102” value [1, 3] was 1.096. For the same molecule, the “Phase-1 RCT-137” value [1, 3] was 0.4276 and 0.4239, the “Phase-1 RCT-144” value [1, 3] was 0.8929 and the “Phase-1 RCT-152” value [1, 3] was 0.7359 and 0.7085. The “Phase-1 RCT-168” value [1, 3] was 0.7781, the “Phase-1 RCT-181” value [1, 3] was 1.504 and the “Phase-1 RCT-182” value [1, 3] was 0.6963 and 0.8836. The “Phase-1 RCT-189” value [1, 3] was 0.7721 and 0.6053, the “Phase-1 RCT-191” value [1, 3] was 0.6314 and 0.7152 and the “Phase-1 RCT-192” value [1, 3] was 0.9295. For the same molecule, the “Phase-1 RCT-225” value [1, 3] was 1, the “Phase-1 RCT-264” value [1, 3] was 0.5562 and 0.6031 and the “Phase-1 RCT-270” value [1, 3] was 0.728. For the same molecule, the “Phase-1 RCT-271” value [1, 3] was 1.199, the “Phase-1 RCT-288” value [1, 3] was 0.8205 and 0.8069 and the “Phase-1 RCT-295” value [1, 3] was 1.57. The “Proliferating cell nuclear antigen gene” value [1, 3] was 1.089, the “Ribosomal protein L13A” value [1, 3] was 1.024 and the “Ribosomal protein S8” value [1, 3] was 0.7171 and 0.6731. For the same molecule, the “Ribosomal protein S17” value [1, 3] was 0.7324 and 0.6158, the “Senescence marker protein-30” value [1, 3] was 0.7313 and 0.841 and the Sodium/bile acid cotransporter [1, 3] was 0.6926 and 0.7429. The “Superoxide dismutase Mn” value [1, 3] was 1.092 and 1.114, the “Thymosin beta-10” value [1, 3] was 0.7195 and 0.7559 and the Transthyretin [1, 3] was 0.4631 and 0.4873. The “Ubiquitin conjugating enzyme (RAD 6 homologue)” value [1, 3] was 0.7763 and 0.6535, the “Uncoupling protein 2” value [1, 3] was 0.9638 and 0.9416 and the Zinc finger protein [1, 3] was 0.8961 and 0.8505. The c-jun [1, 3] was 1.14 and 1.384, the c-myc [1, 3] was 1.235 and 1.141 and the p53 [1, 3] was 1.067 and 1.196. The “{Ribosomal protein L6}” value [1, 3] was 1.368 and 1.181, the “Paraoxonase 1” value ([1]; rat, in vivo) was 0.4982 and 0.4752 and the “Liver Toxicity Necrosis Classification” value (Sprague Dawley rats; in vivo) was “no”. The “Liver Necrosis” value (Sprague Dawley rats; intraperitoneal, dose 20 mg/kg, 72 hours after treatment) was “no”, the “Score (histopathology liver necrosis severity score)” value (Sprague Dawley rats; intraperitoneal, dose 20 mg/kg, 72 hours, 1 = not remarkable, 2 and higher increasing severity) was 1 and the “Liver Necrosis” value (Sprague Dawley rats; intraperitoneal, dose 80 mg/kg, 72 hours after treatment) was “no”. The “Score (histopathology liver necrosis severity score)” value (Sprague Dawley rats; intraperitoneal, dose 80 mg/kg, 72 hours, 1 = not remarkable, 2 and higher increasing severity) was 1.
